From ChEMBL document CHEMBL1141633, “Synthesis and biological evaluation of chalcones as inhibitors of the voltage-gated potassium channel Kv1.3” (Bioorg Med Chem Lett, 2008)

The molecules below were run against T1, Potassium voltage-gated channel subfamily A member 3 (Homo sapiens, UniProt P22001) (assay: Inhibition in Kv1.3 expressed in human Jurkat cells by patch clamp method).
Assay type: cell-based

T1 sequence (P22001 whole entry): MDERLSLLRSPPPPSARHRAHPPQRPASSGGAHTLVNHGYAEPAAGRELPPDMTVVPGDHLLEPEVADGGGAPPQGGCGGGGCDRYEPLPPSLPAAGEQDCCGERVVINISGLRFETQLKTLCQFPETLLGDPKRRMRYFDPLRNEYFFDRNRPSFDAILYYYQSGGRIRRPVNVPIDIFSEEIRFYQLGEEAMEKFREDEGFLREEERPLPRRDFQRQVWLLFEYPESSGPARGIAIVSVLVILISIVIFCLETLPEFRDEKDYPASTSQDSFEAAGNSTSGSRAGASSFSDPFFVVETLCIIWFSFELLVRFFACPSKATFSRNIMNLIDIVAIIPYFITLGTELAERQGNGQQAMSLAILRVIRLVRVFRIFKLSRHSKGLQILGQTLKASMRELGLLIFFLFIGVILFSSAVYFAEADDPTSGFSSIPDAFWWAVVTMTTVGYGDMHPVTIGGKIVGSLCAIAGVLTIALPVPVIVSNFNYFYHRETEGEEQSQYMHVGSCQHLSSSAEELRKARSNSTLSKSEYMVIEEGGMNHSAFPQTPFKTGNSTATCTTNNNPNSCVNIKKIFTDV

Row | EC50 | SMILES
1 | 3000 nM | COc1cccc(/C=C(\C)C(=O)c2c(O)c(OC)c3occc3c2OC)c1
2 | 2400 nM | COc1c(C(=O)/C=C/c2ccccc2)cc(OC)c2occc12

Continued, molecule first:

Row | SMILES | EC50
3 | COc1cccc(/C=C/C(=O)c2cc3ccoc3c(OC)c2O)c1 | 1700 nM
4 | COc1cccc(/C=C/C(=O)c2cc(OC)c3occc3c2OC)c1 | 2400 nM
5 | COc1cccc(/C=C/C(=O)c2c(O)c(OC)c3occc3c2OC)c1 | 900 nM

These molecules were tested against T1, Potassium voltage-gated channel subfamily A member 3 (assay: Inhibition in Kv1.3 expressed in […] by patch clamp method).

Row | EC50 | SMILES
6 | 17000 nM | COc1c(C(=O)/C=C/c2ccccc2)c(O)cc2occc12
7 | 400 nM | COc1c(C(=O)/C=C/c2ccccc2)c(O)c(OC)c2occc12
8 | 800 nM | COc1cccc(/C=C/C(=O)c2c(O)c(OC)c3occc3c2OC)c1
